We go through eight molecules from patent EP0326331B1, “Substituted quinolines and cinnolines” (Dow AgroSciences LLC, priority 1988, dated 1989).

Read-outs that look alike come from different tables or passages of the source.

Common to all, as to format: in vivo
The subject of experiment [1] is Erysiphe graminis tritici (powdery mildew). The experiment can be described thus: Test 1 greenhouse foliar spray screen, powdery mildew on wheat. Conditions: for POWD MDEW: disease control rating, foliar spray on wheat, 400 ppm (+++ at 100 ppm); for pest or weed control at 400 ppm: Blumeria graminis, foliar, Test 1, foliar spray on wheat, disease control rating at 400 ppm / 100 ppm, read-out: POWD MDEW.

The test system of experiment [2] is Puccinia recondita tritici (leaf rust). In words: Test 1 greenhouse foliar spray screen, leaf rust on wheat. To be noted: for LEAF RUST: disease control rating, foliar spray on wheat, 400 ppm (+++ at 100 ppm); for pest or weed control at 400 ppm: Puccinia recondita, foliar, Test 1, foliar spray on wheat, disease control rating at 400 ppm / 100 ppm.
Another experiment relates to corn rootworm. The experiment can be described thus: Mite/insect screen, CRW. Conditions: read-out: CRW RESULTS %; for mortality at 24 ppm: CRW rate 24.00 ppm. In short, it runs like this:
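Following dissolution in equal parts acetone and alcohol with 23 g/L and 13 g/L emulsifier blends and dilution with water, test solutions were scored for percent mortality at the end of standard exposures.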

Experiment [3] deals with Cercospora beticola (leaf spot). The experiment can be described thus: Test 1 greenhouse foliar spray screen, leaf spot on sugar beet. Conditions: for LEAF SPOT: disease control rating, foliar spray on sugar beet, 400 ppm (+++ at 100 ppm); for pest or weed control at 400 ppm: Cercospora beticola, Test 1, foliar spray on sugar beet, disease control rating at 400 ppm / 100 ppm.

Experiment [4] has as its system southern armyworm (Spodopetra eridania Cramer). In words: Mite/insect screen, SAW. To be noted: Spodoptera eridania, foliar, percent mortality, foliar spray on squash, read-out: SAW RESULTS %; for mortality at 200 ppm: rate 200 ppm; for mortality at 400 ppm: rate 400 ppm. The gist of the method: (§1)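 Foliar spray to runoff (10 psi), 1 h drying; aqueous dilutions from acetone/alcohol emulsifier stock. Mortality (%) after standard exposure.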

In experiment [5] the test system is Pyricularia oryzae (rice blast). The experiment can be described thus: whole plant or invertebrate. Conditions: for RICE BLAST: disease control rating, foliar spray on rice, 400 ppm (+++ at 100 ppm); for pest or weed control at 400 ppm: Pyricularia oryzae, foliar, read-out: RICE BLAST, Test 1, foliar spray on rice, disease control rating at 400 ppm / 100 ppm.
Experiment [6] concerns Venturia inaequalis (apple scab). In words: Test 1 greenhouse foliar spray screen, apple scab on apple seedling. To be noted: for APPL SCAB: disease control rating, foliar spray on apple seedling, 400 ppm (+++ at 100 ppm); for pest or weed control at 400 ppm: Venturia inaequalis, Test 1, foliar spray on apple seedling, disease control rating at 400 ppm / 100 ppm, read-out: APPL SCAB.

The test system of experiment [7] is Pseudoperonospora cubensis (downy mildew). In words: Test 1 greenhouse foliar spray screen, downy mildew on squash. To be noted: for DOWN MDEW: disease control rating, foliar spray on squash, 400 ppm (+++ at 100 ppm); for pest or weed control at 400 ppm: Pseudoperonospora cubensis, foliar, Test 1, foliar spray on squash, disease control rating at 400 ppm / 100 ppm, read-out: DOWN MDEW.

Experiment [8] deals with Septoria tritici (leaf blotch). In words: Test 1 greenhouse foliar spray screen, leaf blotch on wheat. Conditions: for LEAF BLOT: disease control rating, foliar spray on wheat, 400 ppm (+++ at 100 ppm); for pest or weed control at 400 ppm: Zymoseptoria tritici, Test 1, foliar spray on wheat, disease control rating at 400 ppm / 100 ppm, read-out: LEAF BLOT.
Experiment [9] deals with Botrytis cinerea (gray mold). In words: Test 1 greenhouse foliar spray screen, gray mold on grape berries. To be noted: for GRAY MOLD: disease control rating, spray on grape berries, 400 ppm (+++ at 100 ppm); for pest or weed control at 400 ppm: Botrytis cinerea, foliar, Test 1, spray on grape berries, disease control rating at 400 ppm / 100 ppm.
Experiment [10] concerns melon aphids (Aphis gossypii Glover). The experiment can be described thus: Mite/insect screen, MA. Conditions: Aphis gossypii, foliar, percent mortality, foliar spray on squash, read-out: MA RESULTS %; for mortality at 200 ppm: rate 200 ppm; for mortality at 400 ppm: rate 400 ppm. In short, it runs like this:
as §1

The test system of experiment [11] is Twospotted spider mites (Tetranychus urticae Koch). In words: Mite/insect screen, SM. To be noted: Tetranychus urticae, foliar, percent mortality, foliar spray on squash, read-out: SM RESULTS %; for mortality at 200 ppm: rate 200 ppm; for mortality at 400 ppm: rate 400 ppm. In short, it runs like this:
as §1

Setting [12] is: percent mortality, CRW rate 12.00 ppm.

Regarding `CC(=O)N(CCC1=CCCCC1)c1ccnc2c(C)cc(C)cc12` [Example 179, N-[2-(1-cyclohexenyl)ethyl]-N-(6,8-dimethyl-4-quinolinyl)acetamide], the “POWD MDEW” value in experiment [1] is reported as “- (0-19% control at 400 ppm)”. Besides, the “LEAF RUST” value in [2] is “- (0-19% control at 400 ppm)”. Also, the mortality at 12 ppm in the experiment on corn rootworm (setting [12]) came to 0%. The mortality at 24 ppm in the experiment on corn rootworm (percent mortality) is 0%. In addition, the “LEAF SPOT” value in experiment [3] is “+ (20-89% control at 400 ppm)”. Further, the mortality at 200 ppm in experiment [4], in experiment [10] and in experiment [11] was 0% throughout. In addition, the mortality at 400 ppm in [4], in [10] and in experiment [11] was 0% in each case. The “RICE BLAST” value in experiment [5] is listed as “- (0-19% control at 400 ppm)”. Besides, the “APPL SCAB” value in [6] is “+ (20-89% control at 400 ppm)”. In [7], the “DOWN MDEW” value is “++ (90-100% control at 400 ppm)”. The “LEAF BLOT” value in experiment [8] is on record as “- (0-19% control at 400 ppm)”. Also, the “GRAY MOLD” value in [9] was “- (0-19% control at 400 ppm)”.

Consider `Fc1cccc2c(NCCc3ccccn3)ccnc12` [Example 180, 8-fluoro-N-[2-(2-pyridinyl)ethyl]-4-quinolinamine], for which, in experiment [1], the “POWD MDEW” value is reported as “++ (90-100% control at 400 ppm)”. Also, in [2], the “LEAF RUST” value was “- (0-19% control at 400 ppm)”. Moreover, the mortality at 12 ppm with corn rootworm (setting [12]) came to 0%. Besides, in the experiment with corn rootworm (percent mortality), the mortality at 24 ppm amounted to 0%. Also, in [3], the “LEAF SPOT” value is given as “+ (20-89% control at 400 ppm)”. In addition, the mortality at 200 ppm in experiment [4], in [10] and in experiment [11] was 0% throughout. Further, the mortality at 400 ppm in experiment [4], in [10] and in experiment [11] was 0% in each case. Further, in experiment [5], the “RICE BLAST” value was “+ (20-89% control at 400 ppm)”. For the same molecule, in experiment [6], the “APPL SCAB” value is recorded as “- (0-19% control at 400 ppm)”. In addition, the “DOWN MDEW” value in [7] was “++ (90-100% control at 400 ppm)”. In [8], the “LEAF BLOT” value is “+ (20-89% control at 400 ppm)”. Also, in experiment [9], the “GRAY MOLD” value was “- (0-19% control at 400 ppm)”.

As for `Fc1cccc2c(NCCc3ccccc3)cc(NCCc3ccccc3)nc12` [Example 183, 8-fluoro-N,N'-bis(2-phenylethyl)-2,4-quinolinediamine], the “POWD MDEW” value in experiment [1] is on record as “- (0-19% control at 400 ppm)”. In addition, the “LEAF RUST” value in experiment [2] was “++ (90-100% control at 400 ppm)”. Also, the mortality at 12 ppm with corn rootworm (setting [12]) came to 0%. For the same molecule, in experiment [3], the “LEAF SPOT” value was “+ (20-89% control at 400 ppm)”. The mortality at 200 ppm in experiment [4], in experiment [10] and in [11] was 0% each time. In addition, in experiment [5], the “RICE BLAST” value is on record as “++ (90-100% control at 400 ppm)”. The “APPL SCAB” value in experiment [6] is reported as “+ (20-89% control at 400 ppm)”. For the same molecule, the “DOWN MDEW” value in [7] is “+++ (90-100% control at 100 ppm)”. The “LEAF BLOT” value in experiment [8] is recorded as “- (0-19% control at 400 ppm)”. Further, in experiment [9], the “GRAY MOLD” value is given as “- (0-19% control at 400 ppm)”.

On to `CC(CNc1cc(NCC(C)c2ccccc2)c2ccccc2n1)c1ccccc1` (stereo not shown) [Example 184, N,N'-bis(2-phenylpropyl)-2,4-quinolinediamine], for which the “POWD MDEW” value in experiment [1] is on record as “- (0-19% control at 400 ppm)”. In addition, in experiment [2], the “LEAF RUST” value is reported as “++ (90-100% control at 400 ppm)”. For the same molecule, in the experiment with corn rootworm (setting [12]), the mortality at 12 ppm was found to be 0%. Further, the “LEAF SPOT” value in [3] is “- (0-19% control at 400 ppm)”. Also, the mortality at 200 ppm in experiment [4], in experiment [10] and in experiment [11] was 0% each time. The “RICE BLAST” value in experiment [5] is on record as “+ (20-89% control at 400 ppm)”. The “APPL SCAB” value in experiment [6] is given as “- (0-19% control at 400 ppm)”. The “DOWN MDEW” value in experiment [7] is reported as “++ (90-100% control at 400 ppm)”. Moreover, the “LEAF BLOT” value in experiment [8] is “- (0-19% control at 400 ppm)”. In addition, the “GRAY MOLD” value in experiment [9] is listed as “- (0-19% control at 400 ppm)”.

As for `Clc1ccc(CCNc2ccc3c(NCCc4ccc(Cl)cc4)ccnc3c2)cc1` [Example 186, N,N'-bis[2-(4-chlorophenyl)ethyl]-4,7-quinolinediamine], in experiment [1], the “POWD MDEW” value is listed as “- (0-19% control at 400 ppm)”. Moreover, the “LEAF RUST” value in [2] is listed as “+ (20-89% control at 400 ppm)”. For the same molecule, the mortality at 12 ppm in the experiment on corn rootworm (setting [12]) stood at 0%. Also, in the experiment on corn rootworm (percent mortality), the mortality at 24 ppm worked out at 0%. Moreover, the “LEAF SPOT” value in experiment [3] is “+ (20-89% control at 400 ppm)”. For the same molecule, the mortality at 200 ppm in experiment [4], in experiment [10] and in [11] was 0% in each case. Besides, the mortality at 400 ppm in experiment [4], in experiment [10] and in experiment [11] was 0% in each case. In addition, the “RICE BLAST” value in [5] is listed as “- (0-19% control at 400 ppm)”. In experiment [6], the “APPL SCAB” value is given as “- (0-19% control at 400 ppm)”. In addition, in [7], the “DOWN MDEW” value was “+++ (90-100% control at 100 ppm)”. Further, the “LEAF BLOT” value in [8] is reported as “+ (20-89% control at 400 ppm)”. The “GRAY MOLD” value in [9] is recorded as “- (0-19% control at 400 ppm)”.

As for `COc1ccc(CCNc2ccc3c(NCCc4ccc(OC)cc4)ccnc3c2)cc1` [Example 187, N,N'-bis[2-(4-methoxyphenyl)ethyl]-4,7-quinolinediamine], the “POWD MDEW” value in experiment [1] was “- (0-19% control at 400 ppm)”. For the same molecule, in experiment [2], the “LEAF RUST” value is reported as “+ (20-89% control at 400 ppm)”. The mortality at 12 ppm in the experiment with corn rootworm (setting [12]) was 0%. Further, the mortality at 24 ppm in the experiment on corn rootworm (percent mortality) came to 0%. The “LEAF SPOT” value in experiment [3] is given as “- (0-19% control at 400 ppm)”. Also, the mortality at 200 ppm in [4], in experiment [10] and in [11] was 0% each time. Also, the mortality at 400 ppm in experiment [4], in experiment [10] and in experiment [11] was 0% in each case. Besides, in experiment [5], the “RICE BLAST” value is on record as “+ (20-89% control at 400 ppm)”. Besides, the “APPL SCAB” value in experiment [6] is reported as “- (0-19% control at 400 ppm)”. The “DOWN MDEW” value in experiment [7] is given as “+++ (90-100% control at 100 ppm)”. Besides, in experiment [8], the “LEAF BLOT” value is listed as “- (0-19% control at 400 ppm)”. Also, the “GRAY MOLD” value in experiment [9] was “- (0-19% control at 400 ppm)”.

As for `c1ccc(CCNc2ccnc3c(NCCc4ccccc4)cccc23)cc1` [Example 189, N,N'-bis(2-phenylethyl)-4,8-quinolinediamine], the pest or weed control at 400 ppm in experiment [1] was 0 to 19%; in [2], 20 to 89%; in [3], 0 to 19%; in experiment [5], 20 to 89%; in experiment [6] it was 0 to 19%; in [7] it was 20 to 89%. In addition, the pest or weed control at 400 ppm in [8] and in experiment [9] was 0 to 19% in each case. Further, the mortality at 12 ppm in the experiment on corn rootworm (setting [12]) came to 0%. Also, the mortality at 200 ppm in experiment [4], in experiment [10] and in experiment [11] was 0% in each case.

Take `Fc1cccc2c(NCCc3ccc(Cl)cc3Cl)cc(NCCc3ccc(Cl)cc3Cl)nc12` [Example 190, N,N'-bis[2-(2,4-dichlorophenyl)ethyl]-8-fluoro-2,4-quinolinediamine]: the pest or weed control at 400 ppm in experiment [1] is 0 to 19%; in experiment [2] it was 90 to 100%; in [3] it was 0 to 19%; in experiment [5], 20 to 89%; in experiment [6] it was 0 to 19%; in [7], 0 to 19%. Moreover, the pest or weed control at 400 ppm in experiment [8] and in [9] was 0 to 19% throughout. The mortality at 12 ppm in the experiment on corn rootworm is 0%. Also, the mortality at 200 ppm in experiment [4], in experiment [10] and in [11] was 0% each time.
